Assays:
[1] = biological target: T1, Thromboxane-A synthase (Homo sapiens) (UniProt P24557); assay: Percent inhibition against thromboxane A2 synthase by the compound at a concentration of 10e-6 M
T1 sequence (whole entry): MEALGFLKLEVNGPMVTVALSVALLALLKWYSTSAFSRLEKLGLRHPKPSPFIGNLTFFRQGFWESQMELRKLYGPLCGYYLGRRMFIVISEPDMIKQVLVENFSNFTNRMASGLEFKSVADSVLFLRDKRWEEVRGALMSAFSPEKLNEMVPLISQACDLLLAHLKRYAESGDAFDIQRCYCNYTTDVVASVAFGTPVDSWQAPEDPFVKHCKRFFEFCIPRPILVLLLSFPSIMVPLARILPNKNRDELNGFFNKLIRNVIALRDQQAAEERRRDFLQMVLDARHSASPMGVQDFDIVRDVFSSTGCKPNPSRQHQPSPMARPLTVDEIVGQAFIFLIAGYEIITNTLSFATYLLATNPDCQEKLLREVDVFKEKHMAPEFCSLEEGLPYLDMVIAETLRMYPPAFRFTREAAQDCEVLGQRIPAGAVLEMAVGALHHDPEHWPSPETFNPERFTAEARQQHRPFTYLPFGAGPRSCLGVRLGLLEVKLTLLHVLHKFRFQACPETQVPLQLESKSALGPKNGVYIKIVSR

Thromboxane A2 receptor = biological target: T2, Thromboxane A2 receptor (Homo sapiens, UniProt P21731); assay: In vitro inhibitory concentration of compound against thromboxane A2 receptor
T2 sequence (P21731 whole entry): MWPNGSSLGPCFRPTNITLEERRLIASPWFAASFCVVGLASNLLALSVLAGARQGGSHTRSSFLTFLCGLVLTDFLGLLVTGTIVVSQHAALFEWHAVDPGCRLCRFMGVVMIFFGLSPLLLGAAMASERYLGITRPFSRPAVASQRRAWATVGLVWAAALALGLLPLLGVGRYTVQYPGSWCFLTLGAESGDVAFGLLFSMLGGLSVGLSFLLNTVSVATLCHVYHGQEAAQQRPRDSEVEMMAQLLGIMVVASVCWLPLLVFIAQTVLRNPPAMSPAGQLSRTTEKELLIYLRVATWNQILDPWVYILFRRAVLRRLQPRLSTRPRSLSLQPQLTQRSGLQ

Row | inhibition [1] | IC50 (Thromboxane A2 receptor) | SMILES
1 | 97.4% |  | CCCCCNC(=O)NS(=O)(=O)c1cc([N+](=O)[O-])ccc1NC1CCCCC1
2 |  | 11 nM | CC(C)(C)/N=C(\NC#N)Nc1cccc(/C(=C/CCCC(=O)O)c2cccnc2)c1

From ChEMBL document CHEMBL1134019, “Structure determination and comparison of BM567, a sulfonylurea, with terbogrel, two compounds with dual action, thromboxane receptor antagonism and thromboxane synthase inhibition” (Bioorg Med Chem Lett, 2001)
